Drawing on PubChem BioAssay AID743417 (Broad Institute, 2014), this text covers AC50 for 89 molecules.

Structures are written as SMILES. Inconclusive results are not listed. The source made the active and inactive calls.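 The calls were made as follows: active = compounds lowering the luciferase signal with a fitted half-maximal dose at most twice their top valid dose (cut at about 30 µM in these data); inconclusive = flat fits with moderate signal loss, or poor fits; inactive = the rest.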 A value given as a limit tells only on which side of the number the result lay.

For the assay, the system named is Clone20 osteoblast Shn3 3'UTR firefly luciferase, 24 h. As to the kind of experiment: Shn3 3'UTR reporter inhibitors, dose response, cell-based, Clone20 osteoblasts, luminescence, dry powder, set 2 (AID 743417).

Broadly, the AC50 is the midpoint of the concentration-response curve, whichever way the signal moves. As to `CC(C)(CNC(=O)c1ccc(Cl)c(S(=O)(=O)N2CCc3ccccc3C2)c1)N1CCOCC1`, the AC50 was 10.5 µM.

Consider `CN(C)S(=O)(=O)c1ccc(Oc2ccc(S(=O)(=O)N(C)C)cc2)cc1`, for which the AC50 was 3.04 µM.

As for `COc1cc(Nc2nc(-c3ccccc3)c3cc(C)ccc3n2)cc(OC)c1OC`, the AC50 was 6.55 µM.

In the case of `COc1ccc(OCc2cccc(C(=O)O)c2)cc1`, the AC50 was 1.39 µM.

For `CC(C)C[C@H](N)c1nnc(S(=O)(=O)Cc2ccc(F)cc2)o1`, the AC50 was 9.02 µM.

On to `CCOC(=O)N1CCC(NC(=O)C2CCCN(Cc3nc(-c4cccc(C)c4)oc3C)C2)CC1` (centres undefined), for which the AC50 is 3.06 µM.

Turning to `Cc1ccccc1CN1CC2=C(CCN(Cc3ccccc3)C2=O)N2CCN=C12`, the AC50 was 2.41 µM.

In the case of `CC[C@]12c3[nH]c4cc(CCC(=O)N(C)C)ccc4c3CCN1C(=O)[C@@H](CC(=O)NC/C=C(\C)CCC=C(C)C)C[C@@H]2C(=O)N1CCN(C(=O)c2ccco2)CC1`, the AC50 was 1.68 µM.

With `Cc1ccc(Oc2c(C(N)=O)cc([N+](=O)[O-])cc2[N+](=O)[O-])cc1`, the AC50 was 11.9 µM.

`C=C1C(=O)[C@]23C[C@H]1CCC2[C@@]1(C)C(C[C@@H]3O)[C@](C)(C(=O)OC)CC[C@@H]1O` (some centres undefined): the AC50 is 2.58 µM.

`CC1CC(C)(C)CC2(C1)NC(=O)N(CC(=O)N1CCN(Cc3ccc(C#N)cc3)CC1)C2=O` (centres undefined): the AC50 was 1.47 µM.

Consider `O=c1oc2ccccc2c(Cl)c1CN1CCCCC1`, for which the AC50 is 4.99 µM.

Take `CC(=O)c1cn(Cc2ccccc2F)c2ccccc12`: the half-maximal activity concentration (AC50) is 2.96 µM.

With `COc1ccccc1C(NC(C)=O)c1cc(Cl)c2cccnc2c1O` (centres undefined), the AC50 is 2.56 µM.

Regarding `COc1ccc(OCC(O)CNCCOc2ccccc2OC)c(C(C)(C)C)c1` (centres undefined), the half-maximal activity concentration (AC50) was 11.6 µM.

With `Cc1[nH]nc2c1-c1nc3ccccc3nc1C(C)(C)C2`, the AC50 is 4.2 µM.

Turning to `O=C(Nc1nc2ccccc2s1)C1CCN(S(=O)(=O)c2cc([N+](=O)[O-])ccc2Cl)CC1`, the AC50 is 3.07 µM.

In the case of `NC(=O)c1cc(N2C(=O)C=CC2=O)ccc1Cl`, the AC50 is 11.3 µM.

On to `CCOC(=O)C1CCCN(C(=O)Cn2sc3nc(C)cc(C)c3c2=O)C1` (centres undefined), for which the AC50 was 12.5 µM.

As to `Cc1c(C(C)C)c(=O)n(-c2ccc(S(=O)(=O)NCc3ccccc3)cc2)n1C`, the half-maximal activity concentration (AC50) is 1.18 µM.

On to `COc1ccccc1-c1cc(C(F)(F)F)nc(S(=O)(=O)CCCC(=O)NCc2ccc(F)cc2)n1`, for which the half-maximal activity concentration (AC50) is 4.43 µM.

As for `COc1ccc(OC)c(NC(=O)CN(Cc2ccc(F)cc2)C2CCCCC2)c1`, the AC50 was 4.99 µM.

Turning to `COc1ccccc1NS(=O)(=O)c1cc(NC(=O)c2ccc(Cl)nc2)ccc1Cl`, the AC50 is 3.12 µM.

As to `Oc1ccccc1Nc1nc(NCc2ccccc2)c2ccccc2n1`, the half-maximal activity concentration (AC50) is 10.7 µM.

Turning to `NC(=O)CC(NC(=O)c1ccccc1)c1ccc(N2CCC(Cc3ccccc3)CC2)c([N+](=O)[O-])c1` (centres undefined), the concentration at half-maximal activity (AC50) was 2.61 µM.

Consider `CC(C)(C)NC(=O)CSc1nc2ccc(NC(=O)CSc3nnnn3Cc3ccccc3)cc2s1`, for which the AC50 is 3.26 µM.

Take `CS(=O)(=O)c1ccc(C(=O)OCC(=O)N2CCN(CCC3CCCCC3)CC2)cc1[N+](=O)[O-]`: the half-maximal activity concentration (AC50) is 2.41 µM.

On to `CN(Cc1ccc(OC(F)F)cc1)C(=O)c1cccc(S(=O)(=O)N2CCN(Cc3ccccc3)CC2)c1`, for which the AC50 was 2.37 µM.

As for `O=C(c1cccc(S(=O)(=O)N2CCN(c3ccc(F)cc3)CC2)c1)N1CCCC(C(F)(F)F)C1` (centres undefined), the AC50 is 0.942 µM.

As to `Cn1nc(C(C)(C)C)cc1C(=O)NCc1ccc2c(c1)OCO2`, the AC50 was 1.17 µM.

For `COc1ccc(OC)c2sc(N(CCN(C)C)C(=O)/C=C/c3cccs3)nc12`, the AC50 is 12.7 µM.

Turning to `Cn1nnnc1Sc1ncnc2scc(Br)c12`, the AC50 was 6.51 µM.

As to `CC1(C)CC(=O)c2c(nc(SCC(=O)Nc3nsc(-c4ccccc4)n3)c(C#N)c2-c2ccccc2)C1`, the AC50 is > 70 µM (inactive).

`CCOc1ccccc1NC(=O)c1nc(S(=O)(=O)Cc2cccc(C)c2)ncc1Cl`: the AC50 is 0.324 µM.

Take `O=C(c1cc(COc2c(F)cccc2F)on1)N1CCC(c2ccncc2)CC1`: the AC50 was 1.6 µM.

Turning to `CC(C)C[C@@H](CO)N(Cc1ccccc1)S(=O)(=O)N(Cc1ccccc1)[C@H](CO)CC(C)C`, the AC50 was 10.1 µM.

Regarding `Cn1c(=O)c2c(nc(NCc3ccco3)n2C/C=C/c2ccccc2)n(C)c1=O`, the AC50 is 1.08 µM.

For `COC(=O)[C@@]12CCCCN1[C@H](c1ccc(SC3CCCCC3)c(OC)c1)[C@@H]1C(=O)N(C)C(=O)[C@@H]12`, the half-maximal activity concentration (AC50) was 21.4 µM.

Consider `c1ccc(Nc2nc(NCC3CCCO3)c3ccccc3n2)cc1` (centres undefined), for which the AC50 is 21.7 µM.

On to `CC(C)C[C@@H](CN1CCCC1CN1C(=S)NC[C@@H]1Cc1ccc(O)cc1)N1C[C@H](Cc2ccc(O)cc2)N(CC2CCCCCC2)C1=S` (some centres undefined), for which the AC50 was 18.8 µM.

On to `Cc1cc(N2CCCCC2)nc(NCc2ccccc2)n1`, for which the AC50 is 4.01 µM.

For the molecule `C[C@@H]1C[C@@H]([C@H](O)CC2CC(=O)NC(=O)C2)C(=O)[C@@H](C)C1`, the concentration at half-maximal activity (AC50) is 0.345 µM.

Take `NC(=O)CC(NC(=O)c1ccc(Br)cc1)c1ccc(N2CCC(Br)CC2)c([N+](=O)[O-])c1` (centres undefined): the half-maximal activity concentration (AC50) is 4.19 µM.

Regarding `COc1ccc(NC(=O)Cn2nnc(-c3ccccc3NS(=O)(=O)c3ccccc3)n2)cc1`, the half-maximal activity concentration (AC50) is 0.485 µM.

On to `CCOC(=O)/C(=C\c1ccc([N+](=O)[O-])cc1)C(=O)c1cc(C(C)=O)c(Nc2ccccc2)s1`, for which the AC50 is 2.47 µM.

As to `COc1ccccc1C(=O)Nc1nc2ccccc2[nH]1`, the concentration at half-maximal activity (AC50) is 0.868 µM.

As for `CC[C@H]1CN2CCc3cc(OC)c(OC)cc3C2C[C@@H]1C[C@H]1NCCc2cc(OC)c(OC)cc21` (some centres undefined), the AC50 is < 0.26 µM.

Turning to `Cc1ccc(NC(=O)C2=C(c3ccccc3)S(=O)(=O)CCS2(=O)=O)cc1`, the AC50 was 0.558 µM.

Consider `CS(=O)(=O)c1nc(-c2ccc(Br)cc2)cc(-c2ccccc2)c1C#N`, for which the AC50 was 4.72 µM.

Turning to `Cc1cccc(C(C)(C)C)c1OCCN1CCCC1`, the AC50 was 34.2 µM.

In the case of `O=C(Nc1ccc(-c2nc3ccccc3o2)cc1)c1ccc(N2CCOCC2)c([N+](=O)[O-])c1`, the AC50 was 3.35 µM.

Take `CCN(C(=O)c1ccc(C(C)(C)C)cc1)c1nnc(Cn2nnc3ccccc32)s1`: the AC50 is 1.35 µM.

For the molecule `CC(Nc1ncnc2ccccc12)c1ccccc1` (centres undefined), the AC50 is 0.355 µM.

In the case of `CCCCCOC(=O)c1[nH]c2c(c1C)C(=O)CC(c1ccco1)C2` (centres undefined), the AC50 was 1.49 µM.

Regarding `CC(=O)Nc1ccc(NC(=O)c2nc(S(=O)(=O)Cc3cccc(C)c3)ncc2Cl)cc1`, the AC50 was 0.528 µM.

In the case of `Cc1ccc(C)c(N2CCN(S(=O)(=O)c3ccc4[nH]c(=O)ccc4c3)CC2)c1`, the AC50 is 24.2 µM.

With `COc1ccc(/C=C/C(=O)c2ccc(C(=O)/C=C/c3ccc(OC)c(OC)c3)cc2)cc1OC`, the AC50 is 5.18 µM.

As for `Cc1cc(F)ccc1S(=O)(=O)Nc1ccccc1C(=O)Nc1ccccc1-c1nc2ccccc2[nH]1`, the AC50 is 12.1 µM.

As to `Cc1cccc(N2CCN(C(=S)Nc3ccc4nc(N5CCN(C)CC5)cc(C)c4c3)CC2)c1C`, the AC50 was 5.45 µM.

For the molecule `COc1cccc(N2CCN(c3ncnc4c3cnn4-c3ccc(C)cc3C)CC2)c1`, the AC50 was 4.65 µM.

On to `CC1=CC2/C=C(\C)CCC(O)C(O)/C=C/C(=O)C23C(=O)NC(CC(C)C)C3C1C` (centres undefined), for which the AC50 was 5.29 µM.

For `COc1ccc(NC(=O)/C(Cl)=C(/Cl)S(=O)Cc2ccccc2)cn1` (centres undefined), the AC50 was < 0.26 µM.

On to `O=C(Nc1nc(-c2ccccc2)cs1)c1ccc(N2CCOCC2)c([N+](=O)[O-])c1`, for which the half-maximal activity concentration (AC50) is 3.75 µM.

On to `COc1ccc(CNCC(O)COc2cccc3c2OC(C)(C)C3)cc1` (centres undefined), for which the AC50 was 1.68 µM.

With `CCC(C)NS(=O)(=O)c1ccc(S(=O)(=O)N2CCCC3(CCCCC3)C2)cc1` (centres undefined), the AC50 is 3.44 µM.

On to `Cc1cccc(C)c1-n1nnnc1C(c1cc2ccccc2o1)N1CCC(n2c(=O)[nH]c3ccccc32)CC1` (centres undefined), for which the AC50 is 3.05 µM.

Take `Nc1nc(N)c2cc(Sc3cccc(C(F)(F)F)c3)ccc2n1`: the AC50 is 4.87 µM.

Take `Cc1ccc(NC(=O)c2nc(S(=O)(=O)Cc3ccccc3C)ncc2Cl)cc1C`: the AC50 is 0.486 µM.

`COc1cccc(CNc2ncnc3cc(Cl)ccc23)c1`: the AC50 is 3.73 µM.

As for `O=C(C1CCC(CNS(=O)(=O)c2cccs2)CC1)N1CCN(c2ccc(Cl)cc2)CC1` (centres undefined), the AC50 was 1.61 µM.

With `CC(=O)NC(c1ccc(C(C)C)cc1)c1ccc2cccnc2c1O` (centres undefined), the AC50 was 0.528 µM.

For the molecule `CN1C(=O)c2cccc(NCCCCCCN3C(=O)c4ccccc4C3=O)c2C1=O`, the AC50 was 5.57 µM.

Consider `NC1=NC[C@H](c2ccccc2)N1CCCCC1CCCCC1`, for which the AC50 was 4.23 µM.

For `O=C(Nc1ccc(Cc2ccncc2)cc1)c1ccc([N+](=O)[O-])o1`, the AC50 is 2.71 µM.

As to `CC(C)c1ccc(NC(=O)Nc2nc(C(N)COCc3ccccc3)cs2)cc1` (centres undefined), the AC50 was 5.99 µM.

With `NS(=O)(=O)c1ccc(CCNCc2cc(Cl)ccc2OCc2ccccc2)cc1`, the AC50 is 4.46 µM.

As for `O=c1c2ccccc2sc2ccc(C#CC3(O)CCCCC3)cc12`, the AC50 was < 0.26 µM.

Regarding `O=C(c1ccc(Cn2c(=S)[nH]c3ccccc3c2=O)cc1)N1CCN(c2ccccn2)CC1`, the AC50 is 6.34 µM.

On to `COc1cc(OC)c(OC)cc1/C=C1\CC(C)C/C(=C\c2cc(OC)c(OC)cc2OC)C1=O` (centres undefined), for which the AC50 is 3.22 µM.

`CC1CCN(Cc2ccc(-c3nnn(CC(=O)Nc4ccccc4Cl)n3)cc2)CC1`: the AC50 was 1.77 µM.

Turning to `Cc1ccc(N2C(=O)c3cccc4c([N+](=O)[O-])ccc(c34)C2=O)c2cccnc12`, the AC50 is 5.68 µM.

Consider `CCc1nnc(NC(=O)c2nc(S(=O)(=O)Cc3cccc(C)c3)ncc2Cl)s1`, for which the AC50 is 2.51 µM.

Take `C[C@@H]1CCCCO[C@H](CN(C)Cc2ccccc2)[C@@H](C)CN([C@H](C)CO)C(=O)c2cc(NC(=O)c3ccccc3)ccc2O1`: the AC50 was 31.3 µM.

As to `CC(Sc1nc2ccccc2c(=O)n1C)C(=O)Nc1ccc2c(c1)OCCO2` (centres undefined), the AC50 is 1.94 µM.

Consider `Oc1c(CN2CCN(c3ccc(F)cc3)CC2)cc(Cl)c2cccnc12`, for which the AC50 is 1.32 µM.

In the case of `c1ccc(CN2CCN(c3ncnc4c3[nH]c3ccccc34)CC2)cc1`, the AC50 was 2.06 µM.

With `C=C1C(=O)[C@]23C[C@H]1CC[C@H]2[C@]1(C)[C@@H](OC(C)=O)CC[C@@](C)(C(=O)OC)[C@H]1C[C@@H]3OC(C)=O`, the half-maximal activity concentration (AC50) is 5.99 µM.

As to `COc1ccccc1Cc1c(-c2ccco2)nc2c(C)cc(Br)cn12`, the AC50 is 1.9 µM.

On to `C=CCn1nc([N+](=O)[O-])nc1Sc1cccc2cccnc12`, for which the AC50 is 10.7 µM.
